Data from patent publication US11827637B2, “Azaindole derivatives and their use as ERK kinase inhibitors” (AGV Discovery, priority 2022, dated 2023).
Where “and” joins values, the source holds several entries; their conditions need not be identical. Equal entries are not always repeated.

Columns and labels:
ERK2 (MAPK1) = biological target: T1, ERK2 (MAPK1) (Homo sapiens, UniProt P28482); assay: ERK2 (MAPK1) enzymatic assay (Z′-Lyte); assay type: biochemical
T1 construct: purchased Life technologies
Experimental: To assess the capacity of compounds to inhibit ERK2 enzymatic activity, Z′-Lyte biochemical assay from Life technologies was used according to manufacturer's instructions. Briefly, black 384-well plates containing 100 nl of 100× compound solution in 100% DMSO, 2.4 μl kinase buffer, 5 μl 2×MAPK1 (ERK2)/Ser/Thr 03 mixture and 2.5 μl 4×ATP solution were used. Plates were shaken for 30 seconds and incubated for 60 minutes at room temperature. Then, 5 μl of a 1:1024 dilution of Development Reagent A was added. Plates were shaken for 30 seconds and incubated for 60 minutes at room temperature. A plate reader was used to read fluorescence. […] Kinase buffer consisted of 50 mM HEPES pH 7.5, 0.01% BRIJ-35, 10 mM MgCl2, 1 mM EGTA.

[1] = tested on: A375 cells (malignant melanoma); assay: Cell line proliferation assay (MTT, A375); assay type: cell-based; conditions: Homo sapiens, A-375, 72 hours
Experimental: A cell line assay was used to determine the capacity of compounds to inhibit cell proliferation. A375 cells (malignant melanoma) were grown to near 80% confluence and seeded at 3000 cells per 100 μl per well in DMEM with 10% FBS in 96-well flat bottom plates. Cells were incubated for 24 hours at 37° C. under 5% CO2. 100 μl compound solutions were added to cells and incubated for 72 hours at 37° C. Total volume of media was 200 μl per well. Compounds were screened in 0.15% DMSO (final) using 10 titration points in duplicate. Negative control wells consisted of vehicle only (0.15% DMSO in 10% FBS DMEM). After 72 hours of compound treatment, SDS 1% (final) was added to positive control wells for 15 minutes at 37° C. Then, medium was discarded and replaced by 100 μl per well of a MTT solution (3-[4.5-dimethylthiazol-2-yl]-2.5-diphenyltetrazolium bromide) (Sigma, Cat #M5655) at 0.5 mg/ml in 10% FBS DMEM. Cells were incubated for 4 hours at 37° C. MTT reaction was stopped and homogenized by the addition of 100 μl per well of SDS 10% 0.01M HCl. After 16 hours at 37° C., absorbance was measured at 570 nm in a Bio-Tek plate reader (PowerWave HT). […] Analysis was performed using GraphPad Prism software.

58 kinases = assay: Kinase panel (Z′-Lyte, Adapta/Lanthascreen), 58 kinases; assay type: biochemical; conditions: for Kinase panel @500 nM hits > 50%: number of the 58 kinases inhibited more than 50% at 500 nM; for Kinase panel @500 nM hits > 80%: number of the 58 kinases inhibited more than 80% at 500 nM
Experimental: To assess the kinase selectivity of compounds, Z′-Lyte biochemical assay, and Adapta/Lanthascreen binding assays from Life technologies were used according to manufacturer's instructions. Pourcentages of inhibition at 500 nM of test compounds were performed towards 58 kinases: ABL1, ACVR1B (ALK4), AKT2 (PKB beta), AMPK (A1/132/G3), AURKA (Aurora A), AXL, BRAF, BTK, CAMK2B (CaMKII beta), CDK2/cyclin A, CHEK1 (CHK1), CLK1, CSNK1A1 (CK1 alpha 1), CSNK2A1 (CK2 alpha 1), DAPK3 (ZIPK), DYRK1A, EGFR (ErbB1), EPHB3, ERBB2 (HER2), FGFR2, FLT3, FRAP1 (mTOR), GSK3B (GSK3 beta), IGF1R, IKBKB (IKK beta), INSR, IRAK4, JAK2, KDR (VEGFR2), KIT, LCK, MAP2K1 (MEK1), MAPK10 (JNK3), MAPK11 (p38 beta), MAPKAPK2, MARK2, MET (cMet), NEK2, NTRK1 (TRKA), PAK2 (PAK65), PDGFRB (PDGFR beta), PDK1 Direct, PHKG2, PIK3CA/PIK3R1 (p110 alpha/p85 alpha), PIM1, PLK1, PRKACA (PKA), PRKCA (PKC alpha), PTK2 (FAK), RET, ROCK1, RPS6KA1 (RSK1), RPS6KB1 (p70S6K), SRC, STK3 (MST2), SYK, TEK (Tie2), TYRO3 (RSE).

hERG channel = biological target: T2, hERG channel (Homo sapiens, UniProt Q12809); assay: hERG channel inhibition assay (patch clamp); assay type: cell-based; conditions: whole-cell patch clamp, CHO cell line expressing hERG
T2 construct: a Chinese Hamster Ovary cell line stably expressing the full-length ion channel; expressed in transfected cells; host or cells: Chinese Hamster Ovary cell line
Experimental: Compounds were used as a 10 mM stock in DMSO before dilution in HEPES-buffered saline to 30 μM. 6-point concentration-response curves were generated using 3.16-fold serial dilutions from the top test concentration. Electrophysiological recordings were made from a Chinese Hamster Ovary cell line stably expressing the full-length ion channel. Single cell ionic currents were measured in whole-cell configuration at room temperature (21-23° C.) using a Patchliner (Nanion Technologies). The internal solution for hERG contained (mM): 120 KF, 20 KCl, 10 EGTA, 10 HEPES and was buffered to pH 7.3. The external solution (HEPES-buffered saline, HEPES-buffered saline) contained (mM): 138 NaCl, 4.5 KCl, 1.8 CaCl2), 1.0 MgCl2, 10 HEPES, 10 glucose, buffered to pH 7.4. […] Currents were measured from the step and referenced to the holding current. Compounds were then incubated for 2 minutes to achieve steady state prior to addition of the next concentration.

CYP 3A4 = biological target: T3, CYP 3A4 (Homo sapiens, UniProt P08684); assay: CYP 3A4 inhibition assay in human hepatocytes; assay type: in vitro ADME; conditions: cryopreserved human hepatocytes, midazolam probe substrate, 10 min
T3 construct: endogenous in cells; host or cells: cryopreserved human hepatocytes
Experimental: To assess the capacity of compounds to inhibit CYP 3A4 enzymatic activity, the test compounds (0.1 μM-25 μM) were incubated with cryopreserved human hepatocytes for 10 min in the presence of the specific CYP3A4 probe substrate, midazolam. 1-Hydroxymidazolam was monitored by LC-MS/MS and a decrease in the formation of the metabolite compared to the vehicle control was used to calculate an IC50 value.

PK experiments in mice = assay type: in vivo; conditions: mouse, plasma, male BalbC mice, @20 mpk PO, @1 mpk IV
Experimental: For intravenous injection, a single 1 mg/kg dose was injected in tail vein and blood was collected at 0.12, 0.25, 0.5, 1, 2, 4, 8 and 24 h after injection. For oral route, a single 20 mg/kg dose was administered, and blood was collected at 0.25, 0.5, 1, 2, 4, 8, 10 and 24 h after gavage. Plasma separated from blood samples was stored at −20° C. until analysis. Vials containing the study samples were retrieved and thawed to room temperature. A volume of 50 μl of sample was added to 200 μl of acetronitrile containing internal standard (tolbutamide; 25 ng/mL) and vortexed for 5 min and centrifuged at 14000 rpm for 5 min at 4° C. 200 μl of supernatant was separated and transferred to HPLC vial for analysis. For prodrug pharmacokinetics, only parent drug was dosed by HPLC.

Caco 2 cell lines = conditions: Caco-2, pH 7.4
Experimental: Caco 2 cell lines were used for the in vitro transport studies and were obtained from ATCC. Cells were split every other day at a split ratio of 1:3-1:5 and grown in Dulbecco's Modified Eagle Medium (GlutaMAX I, 4,500 mg/L D-glucose, sodium pyruvate.) supplemented with 10% FBS in the presence of antibiotics. For transport studies, cells were seeded onto polycarbonate Transwell filter membranes (Millipore) at a density of 60,000 cells/well. After 24 h post seeding, changed medium and cultured for another 21 days before transport experiments. For transport studies, donor solutions were prepared by diluting the stock solutions of test compounds in transport medium (HBSS buffer with 10 mM HEPES, pH 7.4). Receiver solutions were the same HBSS buffer with 10 mM HEPES, pH 7.4. The transport of test compounds (5 μM) was measured in duplicate in two directions [apical to basolateral (A→B) and basolateral to apical (B→A)].
The permeability coefficient for membrane transport of test compounds was determined using the following equation: Papp (cm/sec)=(Vr/CO) (1/S) (dC/dt); Papp=apparent permeability, Vr=volume of medium in the receiver chamber, CO=PAR of the test drug in the receiver chamber, S=surface area of monolayer, dC/dt=drug PAR in the receiver chamber with time). Efflux Ratio was defined as: Efflux Ratio=Papp B-A/Papp A-B Bioanalysis was done on LC-MS/MS.

T1 sequence (P28482 whole entry): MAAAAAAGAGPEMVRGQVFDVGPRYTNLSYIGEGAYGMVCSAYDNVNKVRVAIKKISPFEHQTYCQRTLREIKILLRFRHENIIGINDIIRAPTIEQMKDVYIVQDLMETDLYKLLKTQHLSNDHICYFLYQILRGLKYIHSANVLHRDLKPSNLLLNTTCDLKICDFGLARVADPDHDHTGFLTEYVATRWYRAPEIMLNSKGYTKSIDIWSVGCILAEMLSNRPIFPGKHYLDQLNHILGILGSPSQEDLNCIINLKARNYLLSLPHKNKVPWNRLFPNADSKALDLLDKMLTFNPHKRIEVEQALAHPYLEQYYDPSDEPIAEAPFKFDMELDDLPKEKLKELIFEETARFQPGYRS
T2 sequence (Q12809 whole entry): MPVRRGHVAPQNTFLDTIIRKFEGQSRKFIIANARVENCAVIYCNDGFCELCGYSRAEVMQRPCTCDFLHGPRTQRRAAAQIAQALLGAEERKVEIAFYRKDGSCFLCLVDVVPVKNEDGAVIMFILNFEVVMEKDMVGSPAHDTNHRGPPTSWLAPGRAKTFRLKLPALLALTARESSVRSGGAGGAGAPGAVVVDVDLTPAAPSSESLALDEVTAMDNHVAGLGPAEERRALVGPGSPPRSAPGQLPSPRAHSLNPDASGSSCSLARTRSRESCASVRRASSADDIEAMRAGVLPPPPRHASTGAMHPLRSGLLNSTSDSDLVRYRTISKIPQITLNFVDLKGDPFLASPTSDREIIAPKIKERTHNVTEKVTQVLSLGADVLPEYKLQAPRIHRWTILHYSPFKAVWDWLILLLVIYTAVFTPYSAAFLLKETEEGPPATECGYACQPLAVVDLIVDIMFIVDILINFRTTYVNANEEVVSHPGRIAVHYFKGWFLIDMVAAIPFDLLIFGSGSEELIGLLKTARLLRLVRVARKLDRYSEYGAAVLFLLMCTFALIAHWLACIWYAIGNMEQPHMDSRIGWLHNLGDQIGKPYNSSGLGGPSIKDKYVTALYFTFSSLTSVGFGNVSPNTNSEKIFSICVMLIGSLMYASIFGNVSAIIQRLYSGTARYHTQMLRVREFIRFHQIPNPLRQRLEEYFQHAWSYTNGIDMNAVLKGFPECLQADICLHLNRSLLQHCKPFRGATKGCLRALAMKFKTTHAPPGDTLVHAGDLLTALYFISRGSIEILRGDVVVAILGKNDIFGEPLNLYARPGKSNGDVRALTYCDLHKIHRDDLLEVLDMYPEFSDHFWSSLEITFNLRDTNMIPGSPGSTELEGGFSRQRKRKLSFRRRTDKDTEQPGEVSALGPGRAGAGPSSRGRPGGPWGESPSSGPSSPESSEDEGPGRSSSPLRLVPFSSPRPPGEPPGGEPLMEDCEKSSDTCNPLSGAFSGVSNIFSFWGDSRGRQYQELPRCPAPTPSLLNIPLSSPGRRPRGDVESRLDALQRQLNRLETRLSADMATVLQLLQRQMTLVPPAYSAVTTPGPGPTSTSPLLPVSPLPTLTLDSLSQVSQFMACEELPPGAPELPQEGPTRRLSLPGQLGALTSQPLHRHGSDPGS
T3 sequence (P08684 whole entry): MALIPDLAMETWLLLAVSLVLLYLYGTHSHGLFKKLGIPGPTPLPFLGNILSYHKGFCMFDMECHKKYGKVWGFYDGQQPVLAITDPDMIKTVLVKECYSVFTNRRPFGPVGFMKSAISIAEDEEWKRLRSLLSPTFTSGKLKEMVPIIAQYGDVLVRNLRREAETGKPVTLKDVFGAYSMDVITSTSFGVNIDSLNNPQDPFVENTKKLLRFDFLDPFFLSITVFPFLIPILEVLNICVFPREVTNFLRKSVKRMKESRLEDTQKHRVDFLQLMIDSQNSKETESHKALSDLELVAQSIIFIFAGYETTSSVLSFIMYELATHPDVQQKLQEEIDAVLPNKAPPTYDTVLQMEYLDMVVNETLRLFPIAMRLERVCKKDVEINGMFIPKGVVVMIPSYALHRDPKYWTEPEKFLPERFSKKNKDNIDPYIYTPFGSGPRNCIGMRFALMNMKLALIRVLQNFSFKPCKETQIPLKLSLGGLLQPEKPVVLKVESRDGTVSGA

| IC50 (ERK2 (MAPK1)) | IC50 [1] | Kinase panel @500 nM hits > 50% (58 kinases) | Kinase panel @500 nM hits > 80% (58 kinases) | IC50 (CYP 3A4) | bioavailability (PK experiments in mice; 20 mg/kg) | Cmax (PK experiments in mice) | half-life (PK experiments in mice) | Papp A-B (Caco 2 cell lines) | Compound | IC50 (hERG channel) |
| --- | --- | --- | --- | --- | --- | --- | --- | --- | --- | --- |
| 4.5 nM | 77 nM | 7/58 | 1/58 | 9.5 µM | 9.2% | 1730 ng/mL and 3.3 µM | 110 min | – | CN(C)C[C@H](c1cccc(Br)c1)n1ccc(-c2c[nH]c3ncc(N4CCOCC4)cc23)cc1=O [Compound no5 (S), (S)-1-(1-(3-bromophenyl)-2-(dimethylamino)ethyl)-4-(5-morpholino-1H-pyrrolo[2,3-b]pyridin-3-yl)pyridin-2(1H)-one] | 20.5 µM |
| 4.1 nM | 53 nM | 4/58 | 1/58 | – | – | – | – | – | CN(C)C[C@H](c1ccc(F)c(Br)c1)n1ccc(-c2c[nH]c3ncc(N4CCOCC4)cc23)cc1=O [Compound no7 (S), (S)-1-(1-(3-bromo-4-fluorophenyl)-2-(dimethylamino)ethyl)-4-(5-morpholino-1H-pyrrolo[2,3-b]pyridin-3-yl)pyridin-2(1H)-one] | – |
| 2.2 nM | 64 nM | 7/58 | 1/58 | – | – | – | – | – | CN(C)C[C@H](c1ccc(F)c(I)c1)n1ccc(-c2c[nH]c3ncc(N4CCOCC4)cc23)cc1=O [Compound no8 (S), (S)-1-(2-(dimethylamino)-1-(4-fluoro-3-iodophenyl)ethyl)-4-(5-morpholino-1H-pyrrolo[2,3-b]pyridin-3-yl)pyridin-2(1H)-one] | – |
| 4 nM | 77 nM | – | – | – | – | – | – | – | CN(C)C[C@H](c1cccc(Cl)c1)n1ccc(-c2c[nH]c3ncc(N4CCOCC4)c(F)c23)cc1=O [Compound no22 (S), (S)-1-(1-(3-chlorophenyl)-2-(dimethylamino)ethyl)-4-(4-fluoro-5-morpholino-1H-pyrrolo[2,3-b]pyridin-3-yl)pyridin-2(1H)-one] | – |
| 4.5 nM | 8 nM | – | – | – | – | – | – | – | COCc1cc(Cl)cc([C@@H](CN(C)C)n2ccc(-c3c[nH]c4ncc(N5CCOCC5)cc34)cc2=O)c1 [Compound no23 (S), (S)-1-(1-(3-chloro-5-(methoxymethyl)phenyl)-2-(dimethylamino)ethyl)-4-(5-morpholino-1H-pyrrolo[2,3-b]pyridin-3-yl)pyridin-2(1H)-one] | – |

Further lines, the compound ahead of its results:

| Compound | IC50 (ERK2 (MAPK1)) | IC50 [1] | Kinase panel @500 nM hits > 50% (58 kinases) | Kinase panel @500 nM hits > 80% (58 kinases) | IC50 (CYP 3A4) | bioavailability (PK experiments in mice; 20 mg/kg) | Cmax (PK experiments in mice) | half-life (PK experiments in mice) | Papp A-B (Caco 2 cell lines) | IC50 (hERG channel) |
| --- | --- | --- | --- | --- | --- | --- | --- | --- | --- | --- |
| CN(C)C[C@H](c1cccc(F)c1)n1ccc(-c2c[nH]c3ncc(N4CCOCC4)cc23)cc1=O [Compound no1 (S), (S)-1-(2-(dimethylamino)-1-(3-fluorophenyl)ethyl)-4-(5-morpholino-1H-pyrrolo[2,3-b]pyridin-3-yl)pyridin-2(1H)-one] | 1.2 nM | 107 nM | 2/58 | 1/58 | – | – | – | – | – | – |
| CN(C)C[C@H](c1cccc(Cl)c1)n1ccc(-c2c[nH]c3ncc(N4CCOCC4)cc23)cc1=O [Compound no2 (S), (S)-1-(1-(3-chlorophenyl)-2-(dimethylamino)ethyl)-4-(5-morpholino-1H-pyrrolo[2,3-b]pyridin-3-yl)pyridin-2(1H)-one] | 2.1 nM | 35 nM | 10/58 | 1/58 | – | – | – | – | – | – |
| CN(C)C[C@H](c1cc(Cl)cc(Cl)c1)n1ccc(-c2c[nH]c3ncc(N4CCOCC4)cc23)cc1=O [Compound no3 (S), (S)-1-(1-(3,5-dichlorophenyl)-2-(dimethylamino)ethyl)-4-(5-morpholino-1H-pyrrolo[2,3-b]pyridin-3-yl)pyridin-2(1H)-one] | 3.2 nM | 132 nM | 6/58 | 1/58 | – | – | – | – | – | – |
| CN(C)C[C@H](c1ccc(Cl)c(Cl)c1)n1ccc(-c2c[nH]c3ncc(N4CCOCC4)cc23)cc1=O [Compound no4 (S), (S)-1-(1-(3,4-dichlorophenyl)-2-(dimethylamino)ethyl)-4-(5-morpholino-1H-pyrrolo[2,3-b]pyridin-3-yl)pyridin-2(1H)-one] | 3.1 nM | 72 nM | 5/58 | 1/58 | – | – | – | – | – | – |
| (S)-1-(2-amino-1-(3-chlorophenyl)ethyl)-4-(5-morpholino-1H-pyrrolo[2,3-b]pyridin-3-yl)pyridin-2(1H)-one [Comparative compound A (S), reference compound] | – | – | 26/58 | 15/58 | – | – | – | – | < 10 10^−6 cm/s | – |
